Results reported in PubChem BioAssay AID1259407 (Chemical Carcinogenesis Research Information System (CCRIS), 2018).
Active and inactive are the calls of the source. No rule for the calls is given here.

System: CCRIS mutagenicity, Ames/micronucleus/aberration tests
Assay: CCRIS mutagenicity studies
[1] = Test System: AMES SALMONELLA TYPHIMURIUM, Strain/Indicator: TA98, Metabolic Activation: NONE, Method: PREINCUBATION
[2] = Test System: AMES SALMONELLA TYPHIMURIUM, Strain/Indicator: TA100, Metabolic Activation: NONE, Method: PREINCUBATION
[3] = Test System: AMES SALMONELLA TYPHIMURIUM, Strain/Indicator: TA100, Metabolic Activation: NONE, Method: STANDARD PLATE
[4] = Test System: AMES SALMONELLA TYPHIMURIUM, Strain/Indicator: TA98, Metabolic Activation: HAMSTER, LIVER, S-9, AROCLOR 1254 (10%), Method: PREINCUBATION
[5] = Test System: AMES SALMONELLA TYPHIMURIUM, Strain/Indicator: TA100, Metabolic Activation: HAMSTER, LIVER, S-9, AROCLOR 1254 (10%), Method: PREINCUBATION
[6] = Test System: AMES SALMONELLA TYPHIMURIUM, Strain/Indicator: TA100, Metabolic Activation: RAT, LIVER, S-9, AROCLOR 1254 (10%), Method: PREINCUBATION
[7] = Test System: AMES SALMONELLA TYPHIMURIUM, Strain/Indicator: TA1535, Metabolic Activation: HAMSTER, LIVER, S-9, AROCLOR 1254 (10%), Method: PREINCUBATION
[8] = Test System: AMES SALMONELLA TYPHIMURIUM, Strain/Indicator: TA1535, Metabolic Activation: NONE, Method: PREINCUBATION
[9] = Test System: AMES SALMONELLA TYPHIMURIUM, Strain/Indicator: TA1535, Metabolic Activation: RAT, LIVER, S-9, AROCLOR 1254 (10%), Method: PREINCUBATION
[10] = Test System: AMES SALMONELLA TYPHIMURIUM, Strain/Indicator: TA1537, Metabolic Activation: HAMSTER, LIVER, S-9, AROCLOR 1254 (10%), Method: PREINCUBATION
[11] = Test System: AMES SALMONELLA TYPHIMURIUM, Strain/Indicator: TA1537, Metabolic Activation: NONE, Method: PREINCUBATION
[12] = Test System: AMES SALMONELLA TYPHIMURIUM, Strain/Indicator: TA1537, Metabolic Activation: RAT, LIVER, S-9, AROCLOR 1254 (10%), Method: PREINCUBATION

**Q.** What does the source list for `CN(C)c1ccc(N)cc1`?
**A.** mutagenic call (End Point: IN VITRO CHROMOSOMAL ABERRATIONS, Test System: CHINESE HAMSTER LUNG CELLS (CHL), Metabolic Activation: NONE): active; positive (structural changes); mutagenic call (End Point: IN VITRO CHROMOSOMAL ABERRATIONS, Test System: CHINESE HAMSTER LUNG CELLS (CHL), Metabolic Activation: RAT, LIVER, S-9, KC-400): inactive; negative; authors describe results at highest dose as equivocal; mutagenic call (End Point: IN VITRO CHROMOSOMAL ABERRATIONS, Test System: CHINESE HAMSTER OVARY CELLS (CHO), Metabolic Activation: NONE): inactive; positive at highest dose; authors describe overall results as negative; mutagenic call (End Point: IN VITRO CHROMOSOMAL ABERRATIONS, Test System: CHINESE HAMSTER OVARY CELLS (CHO), Metabolic Activation: RAT, LIVER, S-9, AROCLOR 1254): inactive; negative; mutagenic call (Test System: AMES SALMONELLA TYPHIMURIUM, Strain/Indicator: TA98, Metabolic Activation: HAMSTER, LIVER, S-9, AROCLOR 1254 (30%), Method: PREINCUBATION): active; positive; mutagenic call [1]: inactive; negative; mutagenic call (Test System: AMES SALMONELLA TYPHIMURIUM, Strain/Indicator: TA98, Metabolic Activation: RAT, LIVER, S-9, AROCLOR 1254 (30%), Method: PREINCUBATION): active; positive; mutagenic call (Test System: AMES SALMONELLA TYPHIMURIUM, Strain/Indicator: TA100, Metabolic Activation: HAMSTER, LIVER, S-9, AROCLOR 1254 (30%), Method: PREINCUBATION): inactive; negative; mutagenic call [2]: inactive; negative; mutagenic call (Test System: AMES SALMONELLA TYPHIMURIUM, Strain/Indicator: TA100, Metabolic Activation: RAT, LIVER, S-9, AROCLOR 1254 (30%), Method: PREINCUBATION): inactive; negative; mutagenic call (Test System: Ames Salmonella typhimurium, Strain/Indicator: TA102, Metabolic Activation: None, Method: Preincubation): inactive; negative; mutagenic call (Test System: Ames Salmonella typhimurium, Strain/Indicator: TA102, Metabolic Activation: Rat, Liver, S9, Aroclor 1254, Method: Preincubation): active; positive; mutagenic call (Test System: Ames Salmonella typhimurium, Strain/Indicator: TA104, Metabolic Activation: None, Method: Preincubation): inactive; negative; mutagenic call (Test System: Ames Salmonella typhimurium, Strain/Indicator: TA104, Metabolic Activation: Rat, Liver, S9, Aroclor 1254, Method: Preincubation): active; positive

**Q.** Which mutagenic call (Test System: E. COLI B, Strain/Indicator: H/R30R, Metabolic Activation: NONE) does the source give for `COC(=O)CCN(N=O)C(N)=O` here?
**A.** active; positive

**Q.** What about the mutagenic call (Test System: E. COLI B, Strain/Indicator: HS30R, Metabolic Activation: NONE) of the same compound?
**A.** active; positive

**Q.** How did the mutagenic call (Test System: Ames Salmonella typhimurium, Strain/Indicator: TA98, Metabolic Activation: None, Method: Preincubation) turn out when `CC(=O)OCC(COC(C)=O)OC(C)=O` was run?
**A.** inactive; negative

**Q.** What about the mutagenic call (Test System: Ames Salmonella typhimurium, Strain/Indicator: TA98, Metabolic Activation: Rat, Liver, S9, Sodium phenobarbital and 5,6-benzoflavone, Method: Preincubation) of the same compound?
**A.** inactive; negative

**Q.** And the mutagenic call (Test System: Ames Salmonella typhimurium, Strain/Indicator: TA100, Metabolic Activation: None, Method: Preincubation)?
**A.** inactive; negative

**Q.** What about the mutagenic call (Test System: Ames Salmonella typhimurium, Strain/Indicator: TA100, Metabolic Activation: Rat, Liver, S9, Sodium phenobarbital and 5,6-benzoflavone, Method: Preincubation) of the same compound?
**A.** inactive; negative

**Q.** And the mutagenic call (Test System: Ames Salmonella typhimurium, Strain/Indicator: TA1535, Metabolic Activation: None, Method: Preincubation)?
**A.** inactive; negative

**Q.** What about the mutagenic call (Test System: Ames Salmonella typhimurium, Strain/Indicator: TA1535, Metabolic Activation: Rat, Liver, S9, Sodium phenobarbital and 5,6-benzoflavone, Method: Preincubation) of the same compound?
**A.** inactive; negative

**Q.** What about the mutagenic call (Test System: Ames Salmonella typhimurium, Strain/Indicator: TA1537, Metabolic Activation: None, Method: Preincubation) of the same compound?
**A.** inactive; negative

**Q.** And the mutagenic call (Test System: Ames Salmonella typhimurium, Strain/Indicator: TA1537, Metabolic Activation: Rat, Liver, S9, Sodium phenobarbital and 5,6-benzoflavone, Method: Preincubation)?
**A.** inactive; negative

**Q.** And the mutagenic call (Test System: E. coli, Strain/Indicator: WP2uvrA/pKM101, Metabolic Activation: None, Method: Preincubation)?
**A.** inactive; negative

**Q.** And the mutagenic call (Test System: E. coli, Strain/Indicator: WP2uvrA/pKM101, Metabolic Activation: Rat, Liver, S9, Sodium phenobarbital and 5,6-benzoflavone, Method: Preincubation)?
**A.** inactive; negative

**Q.** `Cc1ccc(C(=O)O[C@@H](C(=O)O)[C@@H](OC(=O)c2ccc(C)cc2)C(=O)O)cc1` (tested in a mixture with another compound) was tested. Which mutagenic call (Test System: AMES SALMONELLA TYPHIMURIUM, Strain/Indicator: TA98, Metabolic Activation: RAT, LIVER, S-9, AROCLOR 1254, Method: STANDARD PLATE) did it give?
**A.** active; positive

**Q.** And the mutagenic call [3]?
**A.** inactive; negative

**Q.** And the mutagenic call (Test System: AMES SALMONELLA TYPHIMURIUM, Strain/Indicator: TA100, Metabolic Activation: RAT, LIVER, S-9, AROCLOR 1254, Method: STANDARD PLATE)?
**A.** active; positive

**Q.** And the mutagenic call (Test System: AMES SALMONELLA TYPHIMURIUM, Strain/Indicator: TA1537, Metabolic Activation: RAT, LIVER, S-9, AROCLOR 1254, Method: STANDARD PLATE)?
**A.** active; positive

**Q.** For `CCCCCCCC/C=C/CCCCCCCC(=O)OCCOCC(OCCO)C1OCC(OCCO)C1OCCO` (centres undefined), which mutagenic call [4] is on record?
**A.** inactive; negative

**Q.** What about the mutagenic call [1] of the same compound?
**A.** inactive; negative

**Q.** And the mutagenic call (Test System: AMES SALMONELLA TYPHIMURIUM, Strain/Indicator: TA98, Metabolic Activation: RAT, LIVER, S-9, AROCLOR 1254 (10%), Method: PREINCUBATION)?
**A.** inactive; negative

**Q.** And the mutagenic call [5]?
**A.** inactive; negative

**Q.** What about the mutagenic call [2] of the same compound?
**A.** inactive; negative

**Q.** What about the mutagenic call [6] of the same compound?
**A.** inactive; negative

**Q.** What about the mutagenic call [7] of the same compound?
**A.** inactive; negative

**Q.** What about the mutagenic call [8] of the same compound?
**A.** inactive; negative

**Q.** And the mutagenic call [9]?
**A.** inactive; negative

**Q.** And the mutagenic call [10]?
**A.** inactive; negative

**Q.** And the mutagenic call [11]?
**A.** inactive; negative

**Q.** And the mutagenic call [12]?
**A.** inactive; negative

**Q.** How did the mutagenic call (Test System: AMES SALMONELLA TYPHIMURIUM, Strain/Indicator: TA98, Metabolic Activation: NONE, Method: STANDARD PLATE) turn out when `COC(=O)c1occ(-c2ccccc2)c1-c1ccccc1` was run?
**A.** inactive; negative

**Q.** What about the mutagenic call [3] of the same compound?
**A.** inactive; negative

**Q.** With `OC/C(Br)=C(\Br)CO` as the compound, how does the mutagenic call [4] read?
**A.** active; positive

**Q.** And the mutagenic call [1]?
**A.** inactive; negative

**Q.** What about the mutagenic call (Test System: AMES SALMONELLA TYPHIMURIUM, Strain/Indicator: TA98, Metabolic Activation: RAT, LIVER, S-9, AROCLOR 1254, Method: PREINCUBATION) of the same compound?
**A.** active; positive

**Q.** And the mutagenic call [5]?
**A.** active; positive

**Q.** And the mutagenic call [2]?
**A.** inactive; negative

**Q.** And the mutagenic call [6]?
**A.** active; positive

**Q.** What about the mutagenic call [7] of the same compound?
**A.** active; positive

**Q.** What about the mutagenic call [8] of the same compound?
**A.** inactive; negative

**Q.** And the mutagenic call [9]?
**A.** active; positive

**Q.** And the mutagenic call [10]?
**A.** active; positive

**Q.** What about the mutagenic call [11] of the same compound?
**A.** inactive; negative

**Q.** What about the mutagenic call [12] of the same compound?
**A.** inactive; negative

**Q.** Which mutagenic call [3] does the source give for `FC(F)(F)c1ccccc1CN1C2c3ccccc3-c3ccccc3C21` (centres undefined) here?
**A.** active; positive

**Q.** Which mutagenic call [3] does the source give for `CCCCOc1ccc(N=O)cc1` here?
**A.** active; positive

**Q.** For `CC(OP(=O)(OC(C)C(Br)CBr)OC(C)C(Br)CBr)C(Br)CBr` (centres undefined), which mutagenic call (Test System: AMES SALMONELLA TYPHIMURIUM, Strain/Indicator: TA100, Metabolic Activation: RAT, LIVER, MICROSOMES, PHENOBARBITAL, Method: PREINCUBATION) is on record?
**A.** active; positive

**Q.** What about the mutagenic call (Test System: AMES SALMONELLA TYPHIMURIUM, Strain/Indicator: TA100, Metabolic Activation: RAT, LIVER, MICROSOMES, Method: PREINCUBATION) of the same compound?
**A.** active; positive

**Q.** With `COc1ccccc1CC1CO1` (centres undefined) as the compound, how does the mutagenic call [2] read?
**A.** active; positive

**Q.** What about the mutagenic call [3] of the same compound?
**A.** active; positive

**Q.** And the mutagenic call [8]?
**A.** active; positive

**Q.** And the mutagenic call (Test System: AMES SALMONELLA TYPHIMURIUM, Strain/Indicator: TA1535, Metabolic Activation: NONE, Method: STANDARD PLATE)?
**A.** active; positive
